pEC50, pIC50: −log10 of the molar value.
Columns and labels:
HCV NS5B = target: T1, HCV NS5B (Hepatitis C virus genotype 1b, UniProt Q9WMX2); experiment: HCV NS5B RdRp enzyme assay (standard or modified); assay type: biochemical; conditions: HCV NS5B RdRp genotype 1b enzyme; standard or modified assay not stated
T1 construct: The protein was expressed with an 18 amino acid C-terminal truncation to enhance the solubility; made in house; host or cells: E. coli BL21(DE3), pET21a
Procedure: HCV NS5B RdRp cloning, expression, and purification. The cDNA encoding the NS5B protein of HCV, genotype 1b, was cloned into the pET21a expression vector. The protein was expressed with an 18 amino acid C-terminal truncation to enhance the solubility. The E. coli competent cell line BL21(DE3) was used for expression of the protein. Cultures were grown at 37° C. for ˜4 hours until the cultures reached an optical density of 2.0 at 600 nm. The cultures were cooled to 20° C. and induced with 1 mM IPTG. Fresh ampicillin was added to a final concentration of 50 μg/ml and the cells were grown overnight at 20° C.
Cell pellets (3 L) were lysed for purification to yield 15-24 mgs of purified NS5B. The lysis buffer consisted of 20 mM Tris-HCl, pH 7.4, 500 mM NaCl, 0.5% triton X-100, 1 mM DTT, 1 mM EDTA, 20% glycerol, 0.5 mg/ml lysozyme, 10 mM MgCl2, 15 ug/ml deoxyribonuclease I, and Complete TM protease inhibitor tablets (Roche). After addition of the lysis buffer, frozen cell pellets were resuspended using a tissue homogenizer. To reduce the viscosity of the sample, aliquots of the lysate were sonicated on ice using a microtip attached to a Branson sonicator. The sonicated lysate was centrifuged at 100,000×g for 1 hr at 4° C. and filtered through a 0.2 μm filter unit (Corning).
The protein was purified using two sequential chromatography steps: Heparin sepharose CL-6B and polyU sepharose 4B (Pharmacia). The chromatography buffers were identical to the lysis buffer but contained no lysozyme, deoxyribonuclease I, MgCl2 or protease inhibitor and the NaCl concentration of the buffer was adjusted according to the requirements for charging the protein onto the column. Each column was eluted with a NaCl gradient which varied in length from 5-50 column volumes depending on the column type. After the final chromatography step, the resulting purity of the enzyme is >90% based on SDS-PAGE analysis. The enzyme was aliquoted and stored at −80° C.
Standard HCV NS5B RdRp enzyme assay. HCV RdRp genotype 1b assays were run in a final volume of 60 μl in 96 well plates (Corning 3600). The assay buffer is composed of 20 mM Hepes, pH 7.5, 2.5 mM KCl, 2.5 mM MgCl2, 1 mM DTT, 1.6 U RNAse inhibitor (Promega N2515), 0.01 mg/ml BSA (Sigma B6917), and 2% glycerol. All compounds were serially diluted (3-fold) in DMSO and diluted further in water such that the final concentration of DMSO in the assay was 2%. HCV RdRp genotype 1b enzyme was used at a final concentration of 28 nM. A polyA template was used at 6 nM, and a biotinylated oligo-dT12 primer was used at 180 nM final concentration. Template was obtained commercially (Amersham 27-4110). Biotinylated primer was prepared by Sigma Genosys. 3H-UTP was used at 0.6 μCi (0.29 μM total UTP). Reactions were initiated by the addition of enzyme, incubated at 30° C. for 60 min, and stopped by adding 25 μl of 50 mM EDTA containing SPA beads (4 μg/μl, Amersham RPNQ 0007). Plates were read on a Packard Top Count NXT after >1 hr incubation at room temperature.
Modified HCV NS5B RdRp enzyme assay. A modified enzyme assay was performed essentially as described for the standard enzyme assay except for the following: The biotinylated oligo dT12 primer was precaptured on streptavidin-coated SPA beads by mixing primer and beads in assay buffer and incubating at room temperature for one hour. Unbound primer was removed after centrifugation. The primer-bound beads were resuspended in 20 mM Hepes buffer, pH 7.5 and used in the assay at final concentrations of 20 nM primer and 0.67 μg/μl beads. Order of addition in the assay: enzyme (1.75 nM) was added to diluted compound followed by the addition of a mixture of template (0.36 nM), 3H-UTP (0.6 μCi, 0.29 μM), and primer-bound beads, to initiate the reaction; concentrations given are final. Reactions were allowed to proceed for 4 hours at 30° C.
IC50 values for compounds were determined using seven different [I]. […]

HCV replicon cells = experiment: HCV replicon FRET / luciferase assay; assay type: cell-based; conditions: 50% reduction in FRET or luciferase activity
Procedure: FRET Assay Preparation. The HCV FRET screening assay was performed in 96-well cell culture plates. The FRET peptide (Anaspec, Inc.) (Taliani et al., Anal. Biochem. 1996, 240, 60-67) contains a fluorescence donor, EDANS, near one end of the peptide and an acceptor, DABCYL, near the other end. The fluorescence of the peptide is quenched by […] resonance energy transfer (RET) between the donor and the acceptor, but as the NS3 protease cleaves the peptide the products are released from RET quenching and the fluorescence of the donor becomes apparent. The assay reagent was made as follows: 5× cell Luciferase cell culture lysis reagent from Promega (#E153A) diluted to 1× with dH2O, NaCl added to 150 mM final, the FRET peptide diluted to 20 μM final from a 2 mM stock.
To prepare plates, HCV replicon cells, with or without a Renilla luciferase reporter gene, were trypsinized and plated in a 96-well plate with titrated test compounds added in columns 3 through 12; columns 1 and 2 contained a control compound (HCV control inhibitor), and the bottom row contained cells with DMSO only. The plates were then placed in a CO2 incubator at 37° C.
Assays. Subsequent to addition of the test compounds described above (FRET Assay Preparation), at various times the plate was removed and Alamar blue solution (Trek Diagnostics, #00-100) was added to measure cellular toxicity. After reading in a Cytoflour 4000 instrument (PE Biosystems), plates were rinsed with PBS and then used for FRET assay by the addition of 30 ul of the FRET peptide assay reagent described above (FRET Assay Preparation) per well. The plate was then placed into the Cytoflour 4000 instrument which had been set to 340 excite/490 emission, automatic mode for up to 20 cycles and the plate read in a kinetic mode. Typically, the signal to noise using an endpoint analysis after the reads was at least three-fold. Alternatively, after Alamar blue reading, plates were rinsed with PBS, then used for luciferase assay using the Promega Dual-Glo Luciferase Assay System or the Promega EnduRen Live Cell Substrate assay.
Compound analysis was performed by quantification of the relative HCV replicon inhibition and the relative cytotoxicity values. To calculate cytoxicity values, the average Alamar Blue fluorescence signals from the control wells were set as 100% non-toxic. The individual signals in each of the compound test wells were then divided by the average control signal and multiplied by 100% to determine […]. To calculate the HCV replicon inhibition values, an average background value was obtained from the two wells containing the highest amount of HCV control inhibitor at the end of the assay period. These numbers were similar to those obtained from naïve Huh-7 cells. The background numbers were then subtracted from the average signal obtained from the control wells and this number was used as 100% activity. The individual signals in each of the compound test wells were then divided by the averaged control values after background subtraction and multiplied by 100% to determine percent activity. EC50 values were calculated as the concentration which caused a 50% reduction in FRET or luciferase activity. The two numbers generated for the compound plate, percent cytoxicity and percent activity, were used to determine compounds of interest for further analysis.

T1 sequence (Q9WMX2 2420-2992): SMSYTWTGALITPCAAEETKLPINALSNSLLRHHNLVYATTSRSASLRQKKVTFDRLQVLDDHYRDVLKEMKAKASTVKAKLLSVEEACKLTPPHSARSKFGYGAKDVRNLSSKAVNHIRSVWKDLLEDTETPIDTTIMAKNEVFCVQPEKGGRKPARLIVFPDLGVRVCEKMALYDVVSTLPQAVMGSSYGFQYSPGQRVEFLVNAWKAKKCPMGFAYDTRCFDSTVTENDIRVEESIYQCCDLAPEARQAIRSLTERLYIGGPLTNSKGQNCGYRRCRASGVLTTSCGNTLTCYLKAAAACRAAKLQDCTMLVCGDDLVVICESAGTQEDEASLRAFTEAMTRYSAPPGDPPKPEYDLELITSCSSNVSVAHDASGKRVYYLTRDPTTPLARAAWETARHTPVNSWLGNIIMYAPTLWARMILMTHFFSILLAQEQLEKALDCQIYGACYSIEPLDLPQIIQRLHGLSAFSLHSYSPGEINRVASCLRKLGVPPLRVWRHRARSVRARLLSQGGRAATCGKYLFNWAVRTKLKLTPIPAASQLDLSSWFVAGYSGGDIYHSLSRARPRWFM

| SMILES | pIC50 (HCV NS5B) | pEC50 (HCV replicon cells; Hepatitis C virus) | pEC50 (HCV replicon cells) |
| --- | --- | --- | --- |
| COc1ccc2c(c1)C1CC1(C(=O)N1CC3CCCN(C(C)=O)C3C1)Cn1c-2c(C2CCCCC2)c2ccc(C(=O)NS(=O)(=O)N(C)C)cc21 (stereo not shown) [drawing 34] | 6.30 to 8.34 | 6.30 to 8.34 |  |
| COc1ccc2c(c1)C1CC1(C(=O)N1CCC[C@H]3CN(Cc4ccccc4)C[C@H]31)Cn1c-2c(C2CCCCC2)c2ccc(C(=O)NS(=O)(=O)C3CC3)cc21 (stereo partly shown) | 6.30 to 8.34 | 6.30 to 8.34 |  |
| COc1ccc2c(c1)C1CC1(C(=O)N1CC3CCCN(C)C3C1)Cn1c-2c(C2CCCCC2)c2ccc(C(=O)NS(=O)(=O)C3CC3)cc21 (stereo not shown) | 6.30 to 8.34 | 6.30 to 8.34 |  |
| COc1ccc2c(c1)C1CC1(C(=O)N1C[C@@H]3CCCN3C[C@@H]1Cc1ccccc1)Cn1c-2c(C2CCCCC2)c2ccc(C(=O)NS(=O)(=O)N(C)C)cc21 (stereo partly shown) | 6.30 to 8.34 | 6.30 to 8.34 |  |
| CNC(=O)N1CCCC2CN(C(=O)C34CC3c3cc(OC)ccc3-c3c(C5CCCCC5)c5ccc(C(=O)NS(=O)(=O)N(C)C)cc5n3C4)CC21 (stereo not shown) | 6.30 to 8.34 | 6.30 to 8.34 |  |
| COc1ccc2c(c1)C1CC1(C(=O)N1CC3CN(C)CC3C1)Cn1c-2c(C2CCCCC2)c2ccc(C(=O)NS(=O)(=O)N(C)C)cc21 (stereo not shown) | 6.30 to 8.34 | 6.30 to 8.34 |  |
| COc1ccc2c(c1)C1CC1(C(=O)N1C[C@@H]3CCCN3C[C@@H]1CC(C)C)Cn1c-2c(C2CCCCC2)c2ccc(C(=O)NS(=O)(=O)N(C)C)cc21 (stereo partly shown) | 6.30 to 8.34 | 6.30 to 8.34 |  |
| COc1ccc2c(c1)C1CC1(C(=O)N1CCN3CCCCC3C1)Cn1c-2c(C2CCCCC2)c2ccc(C(=O)NS(=O)(=O)N(C)C)cc21 (stereo not shown) | 6.30 to 8.34 | 6.30 to 8.34 |  |
| COc1ccc2c(c1)C1CC1(C(=O)N1CCC[C@H]3CN(Cc4ccccc4)C[C@H]31)Cn1c-2c(C2CCCCC2)c2ccc(C(=O)NS(N)(=O)=O)cc21 (stereo partly shown) | 6.30 to 8.34 | 6.30 to 8.34 |  |
| COc1ccc2c(c1)[C@@H]1C[C@]1(C(=O)N1CC3CCCN(C(C)=O)C3C1)Cn1c-2c(C2CCCCC2)c2ccc(C(=O)NS(=O)(=O)N(C)C)cc21 (stereo partly shown) [drawing 72] | 6.30 to 8.34 | 6.30 to 8.34 |  |
| COc1ccc2c(c1)C1CC1(C(=O)N1CCC[C@H]3CN(C)C[C@H]31)Cn1c-2c(C2CCCCC2)c2ccc(C(=O)NS(=O)(=O)N(C)C)cc21 (stereo partly shown) | 6.30 to 8.34 | 6.30 to 8.34 |  |
| COc1ccc2c(c1)C1CC1(C(=O)N1CC3CCCN(C(=O)OC(C)(C)C)C3C1)Cn1c-2c(C2CCCCC2)c2ccc(C(=O)NS(=O)(=O)C3CC3)cc21 (stereo not shown) | 6.30 to 8.34 | 6.30 to 8.34 |  |
| COc1ccc2c(c1)C1CC1(C(=O)N1CC3CCCNC3C1)Cn1c-2c(C2CCCCC2)c2ccc(C(=O)NS(=O)(=O)N(C)C)cc21 (stereo not shown) | 6.30 to 8.34 | 6.30 to 8.34 |  |
| COc1ccc2c(c1)C1CC1(C(=O)N1CCN3CCCCC3C1)Cn1c-2c(C2CCCCC2)c2ccc(C(=O)NS(C)(=O)=O)cc21 (stereo not shown) | 6.30 to 8.34 | 6.30 to 8.34 |  |
| COc1ccc2c(c1)C1CC1(C(=O)N1CC3CNCC3C1)Cn1c-2c(C2CCCCC2)c2ccc(C(=O)NS(=O)(=O)C3CC3)cc21 (stereo not shown) | 6.30 to 8.34 | < 6.00 |  |
| COc1ccc2c(c1)C1CC1(C(=O)N1CC3CCCN(C(=O)OC(C)(C)C)C3C1)Cn1c-2c(C2CCCCC2)c2ccc(C(=O)NS(=O)(=O)N(C)C)cc21 (stereo not shown) [drawing 20] | 6.30 to 8.34 |  | 6.30 to 8.34 |
| COc1ccc2c(c1)C1CC1(C(=O)N1CCN3CCCC3C1)Cn1c-2c(C2CCCCC2)c2ccc(C(=O)NS(=O)(=O)N3CCC3)cc21 (stereo not shown) | 6.30 to 8.34 | 6.30 to 8.34 |  |
| COc1ccc2c(c1)C1CC1(C(=O)N1CCCC3CN(Cc4ccccc4)CC31)Cn1c-2c(C2CCCCC2)c2ccc(C(=O)NS(=O)(=O)N(C)C)cc21 (stereo not shown) | 6.30 to 8.34 | 6.30 to 8.34 |  |
| COc1ccc2c(c1)C1CC1(C(=O)N1CC3CCCN(C(C)=O)C3C1)Cn1c-2c(C2CCCCC2)c2ccc(C(=O)NS(=O)(=O)C3CC3)cc21 (stereo not shown) [drawing 67] | 6.30 to 8.34 | 6.30 to 8.34 |  |
| COc1ccc2c(c1)C1CC1(C(=O)N1CC3CN(C(=O)OC(C)(C)C)CC3C1)Cn1c-2c(C2CCCCC2)c2ccc(C(=O)NS(=O)(=O)N(C)C)cc21 (stereo not shown) | 6.30 to 8.34 | 6.30 to 8.34 |  |
| COc1ccc2c(c1)C1CC1(C(=O)N1CC3CN(C(C)=O)CC3C1)Cn1c-2c(C2CCCCC2)c2ccc(C(=O)NS(=O)(=O)N(C)C)cc21 (stereo not shown) | 6.30 to 8.34 | 6.30 to 8.34 |  |
| COc1ccc2c(c1)C1CC1(C(=O)N1CCN3CCC[C@H]3C1)Cn1c-2c(C2CCCCC2)c2ccc(C(=O)NS(=O)(=O)N3CCC3)cc21 (stereo partly shown) | 6.30 to 8.34 | 6.30 to 8.34 |  |
| COc1ccc2c(c1)C1CC1(C(=O)N1C[C@H]3CNC[C@H]3C1)Cn1c-2c(C2CCCCC2)c2ccc(C(=O)NS(=O)(=O)N(C)C)cc21 (stereo partly shown) | 6.30 to 8.34 | 6.30 to 8.34 |  |

— patent US7521444B2, “Compounds for the treatment of hepatitis C” (Bristol-Myers Squibb Company, priority 2007, dated 2009)
